Laboratory results as given in patent publication US7696129B2, “Substituted aromatic amide derivative, intermediate thereof, agrohorticultural insecticide containing thereof and method for the use thereof” (Nihon Nohyaku Co., Ltd., priority 2001, dated 2010).

Legend:
Format in all cases: in vivo
[1] = test system: Common Cutworm (Spodoptera litura); assay: Test Example 2: insecticidal effect on common cutworm, cabbage leaf immersion; conditions: 50 ppm, cabbage leaf immersed about 30 seconds, second-instar larvae, 25° C., eight days after the inoculation
Excerpt: Insecticidal Effect on Common Cutworm (Spodoptera litura)
A piece of cabbage leaf (cultivar; Shikidori) was immersed for about 30 seconds in a liquid chemical prepared by diluting a preparation containing each compound listed in Tables 4 to 9 as an active ingredient to adjust the concentration to 50 ppm. After air-dryness, it was placed in a plastic Petri dish with a diameter of 9 cm and inoculated with second-instar larvae of common cutworm, after which the dish was closed and then allowed to stand in a room thermostatted at 25° C. Eight days after the inoculation, the dead and alive were counted. The mortality was calculated according to the following equation and the insecticidal effect was judged according to the criterion shown in Test Example 1. The test was carried out with triplicate groups of 10 insects.

[2] = test system: Diamond Back Moth (Plutella xylostella); assay: Test Example 1: insecticidal effect on diamond back moth, immersion of Chinese cabbage seedling with eggs; conditions: 50 ppm, seedling with eggs immersed about 30 seconds, 25° C., six days after the immersion
Excerpt: Insecticidal Effect on Diamond Back Moth (Plutella xylostella)
Adult diamond back moths were released and allowed to oviposit on a Chinese cabbage seedling. Two days after the release, the seedling having the eggs deposited thereon was immersed for about 30 seconds in a liquid chemical prepared by diluting a preparation containing each compound listed in Tables 4 to 9 as an active ingredient to adjust the concentration to 50 ppm. After air-dryness, it was allowed to stand in a room thermostatted at 25° C. Six days after the immersion, the hatched insects were counted. The mortality was calculated according to the following equation and the insecticidal effect was judged according to the criterion shown below. The test was carried out with triplicate groups of 10 insects.

[3] = test system: Smaller Tea Tortrix (Adxophyes sp.); assay: Test Example 3: insecticidal effect on smaller tea tortrix, tea leaf immersion; conditions: 50 ppm, tea leaves immersed about 30 seconds, larvae, 25° C., humidity 70%, eight days after the inoculation
Method: Insecticidal Effect on Smaller Tea Tortrix (Adxophyes sp.)
Tea leaves were immersed for about 30 seconds in a liquid chemical prepared by diluting a preparation containing each compound listed in Tables 1 to 3 as an active ingredient to adjust the concentration to 50 ppm. After air-dryness, the tea leaves were placed in a plastic Petri dish with a diameter of 9 cm and inoculated with larvae of smaller tea tortrix, after which the dish was allowed to stand in a room thermostatted at 25° C. and having a humidity of 70%. Eight days after the inoculation, the dead and alive were counted and the insecticidal effect was judged according to the criterion shown in Test Example 1. The test was carried out with triplicate groups of 10 insects.

SMILES | Test Example 2 (insecticidal effect, mortality criterion) [1] | Test Example 1 (insecticidal effect, mortality criterion) [2] | Test Example 3 (insecticidal effect, mortality criterion) [3]
Cc1c(NC(=O)c2cccc(I)c2C(=O)NC(C)C)ccc(C(C(F)(F)F)C(F)(F)F)c1F [5-60] | A (Mortality 100%) | A (Mortality 100%) | A (Mortality 100%)
CCN(CC)C(=O)OCC(C)NC(=O)c1c(C(=O)Nc2ccc(C(C(F)(F)F)C(F)(F)F)cc2C)cccc1C(F)(F)F (stereo not drawn) [5-44] | A (Mortality 100%) | A (Mortality 100%) | A (Mortality 100%)
C[S+]([O-])CC(C)(C)NC(=O)c1c(I)cccc1C(=O)Nc1ccc(C(C(F)(F)F)C(F)(F)F)nc1 (stereo not drawn) [8-2] | E (Mortality 49% or less) | A (Mortality 100%) | E (Mortality 49% or less)
Cc1cc(C(C(F)(F)F)C(F)(F)F)ccc1NC(=O)c1cccc([N+](=O)[O-])c1C(=O)NC(C)C [5-14] | A (Mortality 100%) | A (Mortality 100%) | A (Mortality 100%)
Cc1nc(C(C(F)(F)F)C(F)(F)F)ccc1NC(=O)c1cccc(I)c1C(=O)NC(C)C [8-10] | A (Mortality 100%) | A (Mortality 100%) | A (Mortality 100%)
Cc1cc(C(C(F)(F)F)C(F)(F)F)ccc1NC(=O)c1cccc(I)c1C1=NC(C)(CS(C)(=O)=O)CO1 (stereo not drawn) [10-4] | E (Mortality 49% or less) | A (Mortality 100%) | E (Mortality 49% or less)
C[S+]([O-])CC(C)(C)NC(=O)c1c(I)cccc1C(=O)Nc1ccc(C(C(F)(F)F)C(F)(F)F)cc1Br (stereo not drawn) [5-54] | A (Mortality 100%) | A (Mortality 100%) | A (Mortality 100%)
C[S+]([O-])CC(C)(C)NC(=O)c1c(I)cccc1C(=O)Nc1ccc(C(C(F)(F)F)C(F)(F)F)cc1C#N (stereo not drawn) [5-58] | A (Mortality 100%) | A (Mortality 100%) | A (Mortality 100%)
CC(=O)NCC(C)(C)NC(=O)c1c(I)cccc1C(=O)Nc1ccc(C(C(F)(F)F)C(F)(F)F)cc1C [5-40] | A (Mortality 100%) | A (Mortality 100%) | A (Mortality 100%)
CSCC(C)(C)NC(=O)c1c(I)cccc1C(=O)Nc1ccc(C(C(F)(F)F)C(F)(F)F)nc1C [8-11] | A (Mortality 100%) | A (Mortality 100%) | A (Mortality 100%)
Cc1cc(C(C(F)(F)F)C(F)(F)F)ccc1NC(=O)c1cccc(I)c1C(=O)NC(C)COC(=O)N(C)Cc1ccccc1 (stereo not drawn) [5-31] | A (Mortality 100%) | A (Mortality 100%) | A (Mortality 100%)
Cc1cc(C(C(F)(F)F)C(F)(F)F)ccc1NC(=O)c1cccc(I)c1C(=O)NC(C)COC(=O)NCc1ccc(C(F)(F)F)cc1 (stereo not drawn) [5-35] | A (Mortality 100%) | A (Mortality 100%) | A (Mortality 100%)
CC(C)NC(=O)c1c(I)cccc1C(=O)Nc1ccc(C(C(F)(F)F)C(F)(F)F)cc1Cl [5-51] | A (Mortality 100%) | A (Mortality 100%) | A (Mortality 100%)
Cc1cc(C(C(F)(F)F)C(F)(F)F)ccc1NC(=O)c1ncccc1C(=O)NC(C)C [7-1] | E (Mortality 49% or less) | A (Mortality 100%) | A (Mortality 100%)
CSCC(C)NC(=O)c1c(I)cccc1C(=O)Nc1ccc(C(C(F)(F)F)C(F)(F)F)nc1C (stereo not drawn) [8-14] | A (Mortality 100%) | A (Mortality 100%) | A (Mortality 100%)
Cc1cc(C(C(F)(F)F)C(F)(F)F)ccc1NC(=O)c1cccc(Cl)c1C(=O)NC(C)C [5-17] | A (Mortality 100%) | A (Mortality 100%) | A (Mortality 100%)
CCNC(=O)OCC(C)NC(=O)c1c(I)cccc1C(=O)Nc1ccc(C(C(F)(F)F)C(F)(F)F)nc1C (stereo not drawn) [8-26] | D (Mortality 79-50%) | A (Mortality 100%) | A (Mortality 100%)
CSCC(C)(C)NC(=O)c1c(I)cccc1C(=O)Nc1ccc(C(C(F)(F)F)C(F)(F)F)c(OC(C)C)c1 [5-70] | E (Mortality 49% or less) | A (Mortality 100%) | E (Mortality 49% or less)
C[S+]([O-])CC(C)(C)NC(=O)c1c(I)cccc1C(=O)Nc1ccc(C(C(F)(F)F)C(F)(F)F)nc1Cl (stereo not drawn) [8-5] | A (Mortality 100%) | A (Mortality 100%) | A (Mortality 100%)
Cc1cc(C(C(F)(F)F)C(F)(F)F)ccc1N(C)C(=O)c1cccc(I)c1C(=O)NC(C)C [6-2] | E (Mortality 49% or less) | A (Mortality 100%) | A (Mortality 100%)
COc1ccc(CNC(=O)OCC(C)NC(=O)c2c(I)cccc2C(=O)Nc2ccc(C(C(F)(F)F)C(F)(F)F)cc2C)cc1 (stereo not drawn) [5-38] | A (Mortality 100%) | A (Mortality 100%) | A (Mortality 100%)
CCc1cc(C(C(F)(F)F)C(F)(F)F)ccc1NC(=O)c1cccc(I)c1C(=O)NC(C)(C)CSC [5-47] | A (Mortality 100%) | A (Mortality 100%) | A (Mortality 100%)
Cc1cc(C(C(F)(F)F)C(F)(F)F)ccc1NC(=O)c1cccc(I)c1C(=O)NC(C)(C)CO [5-27] | E (Mortality 49% or less) | A (Mortality 100%) | E (Mortality 49% or less)
CSCC(C)(C)NC(=O)c1c(I)cccc1C(=O)Nc1cc(F)c(C(C(F)(F)F)C(F)(F)F)cc1C [5-63] | A (Mortality 100%) | A (Mortality 100%) | A (Mortality 100%)
CSCC(C)(C)NC(=O)c1c(I)cccc1C(=O)Nc1ccc(C(C(F)(F)F)C(F)(F)F)c(F)c1C [5-61] | A (Mortality 100%) | A (Mortality 100%) | A (Mortality 100%)
